{"source": "patent US20250144127A1", "about": "“LONG-CHAIN COMPOUND AND USE THEREOF” (Burgeon Therapeutics Co., Ltd., priority 2021, published 2025)", "key": {"[1]": {"test_system": "crab-eating monkeys", "experiment": "High-fat, high-sugar, high-cholesterol diet-induced NASH in crab-eating monkeys", "assay_type": "in vivo, crab-eating monkey", "settings": "20 mg/kg, 1 time/day, 14 weeks, liver puncture", "experimental": "Dosing regimen: 18 non-alcoholic steatohepatitis-eating crab monkeys, males, were divided into 2 groups (n=8-10), one group was set up as a model control group, and one group was set up as a drug administration group. The drug (20 mg/kg) was administered at a frequency of 1 time/day for 14 weeks while feeding a high-fat, high-sugar, high-cholesterol diet for 14 weeks.\nIndicator tests: The body weights and food intake of the crab-eating monkeys were closely monitored during the administration period. After 14 weeks of compound administration, liver puncture was performed for pathologic analysis of NASH indicators."}, "[2]": {"test_system": "primary hepatocytes from WT mice", "experiment": "De novo lipid synthesis in WT primary hepatocytes, [14C]-citric acid tracer", "assay_type": "cell-based", "settings": "WT mouse hepatocytes, [14C]-citric acid substrate"}, "[3]": {"test_system": "ApoE−/− mice", "experiment": "Atherosclerosis in ApoE-/- mice on high cholesterol chow, aortic plaque Sudan IV staining", "assay_type": "in vivo, mouse", "experimental": "Dosing regimen: Hypercholesterolemia is an important trigger for the development of atherosclerosis. […] The specific scheme is as follows. 60 ApoE^−/− mice, males, were equally divided into 6 groups (n=10), of which 5 groups were fed with high cholesterol chow (Research diet, item no. D12079B) for modeling, and 1 group was set aside as a blank control group, while long-term administration of the drug was carried out, i.e., the model control group, the positive control ETC-1002 30 mg/kg group, and the compounds A3 15 mg/kg and 30 mg/kg and 60 mg/kg groups, and blank control group. The compounds in each group were configured with saline (0.9% NaCl) and administered at a frequency of 1 time/day for a 24-week dosing cycle.\nIndicator test: The body weight and food intake of ApoE^−/− mice were closely monitored during the administration period. After 24 weeks of compound administration in each group, the aortic vessels of mice were stripped and Sudan IV staining of aortic plaques was performed, and the plaque area was counted with Image-Pro Plus software."}, "[4]": {"test_system": "primary mouse hepatocytes", "experiment": "Inhibition of de novo lipid synthesis in primary hepatocytes, [1,2-14C]-sodium acetate tracer", "assay_type": "cell-based", "settings": "Hepatocyte, compound 12.5 μM, 4 h, [1,2-14C]-acetate, read-out: Lipid synthesis inhibition (%) (mean ± SD)", "experimental": "Primary hepatic cell isolation and walling: the mouse liver was lavaged by calcium-free perfusate, then digested using collagenase and mouse primary hepatocytes were obtained by density gradient centrifugation, and were inoculated in 6-well plates at a density of 3×10^5/ml (0.2% gelatin was coated before inoculating). After inoculating, the cells were cultured and adhered for 6 h. The medium was changed to serum-free LG-DMEM (containing 2× double antibody) and starved the cells overnight.\nIsotope tracing: the next day, the medium was switched to serum-free LG-DMEM containing 10 nM insulin and the corresponding concentration of compounds (1950 μL, 4 replicate wells per group); 0.1 μCi of [1,2-^14C]-acetate serum-free medium was added to each well, and the plates were then incubated for 4 h in the incubator.\nLipid saponification: Add 1.6 mL of ice PBS to each well for washing 3 times, shake the plate to dry and add 600 μL of 0.5 M KOH to each well to lysis for 1 h. Pipette 480 μL into a glass test tube with 400 μL of 20% KOH (methanol was used as solvent), shake and mix well, and then place it in a water bath at 95° C. to saponify for 3 h. The remaining lysate was used for the determination of the concentration of proteins. Add 400 μL of petroleum ether to each tube, pipette 5-6 times and centrifuge at 2500 rpm for 5 min, take 350 μL of the upper layer of the clear solution to the EP tube, and then add 400 μL of petroleum ether to repeat the extraction for 2 times (a total of 3 times). After complete transfer of the supernatant, 200 μL of water and 400 μL of 5N sulfuric acid were added to each tube for acidification, and the mixture was shaken and mixed. Add 400 μL of petroleum ether to each tube, pipette 5-6 times and centrifuge at 2500 rpm for 5 min, take 350 μL of the upper layer of the clear solution to the EP tube, then add 400 μL of petroleum ether and repeat the extraction for 2 times (a total of 3 times). Place in a fume hood and evaporate the petroleum ether overnight.\nIsotope participation quantification: 1700 μL of scintillation solution was added to each tube and read.\nData processing and analysis: Firstly, the isotopic reference (R control, unit: CCPM/mg protein) of free fatty acids and cholesterol was calculated for the Control group of untreated mouse primary hepatocytes within 4 hours, which represented the basal synthesis. The percent inhibition of lipid synthesis was then calculated for each concentration group of the sample."}, "[5]": {"test_system": "ACLY knockdown primary hepatocytes", "experiment": "De novo lipid synthesis in ACLY knockdown primary hepatocytes, [14C]-citric acid tracer", "assay_type": "cell-based, mouse", "settings": "[14C]-citric acid substrate", "text": "Test protocol: In order to further investigate the dependence of the inhibitory effect of the series of compounds on de novo lipid synthesis on ACLY, the inventors chose ACLY knockdown primary hepatocytes for further evaluation of de novo lipid synthesis, while compound ETC-1002 was used as a positive control. Specifically, the experimental protocol was as above, and 0.1 μCi/well [^14C]-citric acid was used for tracing."}}, "data": [{"compound": "CC(C)(CCCC/C=C/CCCCCC(C)(C)C(=O)O)C(=O)O", "note": "[Compound A3]", "values": [{"measurement": "accumulation of hepatic lipids", "setting": "[1]", "result": "significantly reduce"}, {"measurement": "activity score of non-alcoholic steatohepatopathy (NAS)", "setting": "[1]", "result": "significantly reduced"}, {"measurement": "occurrence of fibrosis", "setting": "[1]", "result": "significantly reduce"}, {"measurement": "occurrence of inflammation", "setting": "[1]", "result": "significantly reduce"}, {"measurement": "de novo synthesis of triglycerides", "setting": "[2]; FIG. 1 A", "result": "significantly inhibited"}, {"measurement": "de novo synthesis of cholesterol", "setting": "[2]; FIG. 1 B", "result": "significantly inhibited"}, {"measurement": "area of aortic plaque", "setting": "[3]; 15, 30 and 60 mg/kg groups, 1 time/day, 24 weeks, vs control group", "result": "significantly reduced"}, {"measurement": "improving atherosclerosis compared with ETC-1002", "setting": "[3]; statement on previous studies", "result": "significantly better than ETC-1002"}, {"measurement": "inhibition at 12.5 µM", "setting": "[4]", "result": "71.2 ± 4.3", "unit": "%"}, {"measurement": "inhibitory effect on de novo synthesis of cholesterol", "setting": "[5]", "result": "significantly attenuated or even the inhibitory effect was not manifested"}, {"measurement": "inhibitory effect on de novo synthesis of triglycerides", "setting": "[5]", "result": "significantly attenuated or even the inhibitory effect was not manifested"}]}]}
